A short description of this test: P70S6K Enzyme Assay: P70S6K inhibitor compounds were diluted and plated in 96 well plates. A reaction mixture including the following components was then added to the compound plate to initiate the enzyme reaction; P70S6K (3 nM, T412E mutant, Millipore) was mixed with 24 μM ATP in an assay buffer containing 100 mM Hepes (pH 7.5), 5 mM MgCl2, 1 mM DTT, 0.015% Brij and 1 μM of the substrate peptide FITC-AHA-AKRRRLSSLRA-OH (derived from the S6 ribosomal protein sequence, FITC=fluorescein isothiocyanate, AHA=6-aminohexanoic acid). The reaction was incubated for 90 min at 25° C., before the addition of 10 mM EDTA to stop the reaction. The proportion of substrate and product (phosphorylated) peptide was analysed on a Caliper Life Sciences Lab Chip 3000, using a pressure of −1.4 psi, and upstream and downstream voltages of −3000 and −700 respectively. Product peaks were resolved before substrate peaks on the resulting chromatograms.

Some results are limits rather than exact numbers.

These results are taken from ChEMBL document CHEMBL5726927, “Heterocyclic derivatives as modulators of kinase activity” (2019).

The IC50 is the midpoint of a concentration-inhibition curve. Consider `O=C1CNc2ncnc(N3CCN(C(CN4CCCC4)c4ccc(F)c(Cl)c4)CC3)c2N1` (stereo unspecified), for which the IC50 is above 1000 nM.
